What was measured:
[1] = target: T1, recombinant human CYP2C8 (Homo sapiens, UniProt P10632); test: Metabolic stability in recombinant human CYP isoenzymes; type: in vitro ADME; settings: rCYP2C8 100 pmol P450/mL, 1 µM
T1 construct: purchased Cypex Ltd. (Dundee, UK)
T1 sequence (P10632 1-490): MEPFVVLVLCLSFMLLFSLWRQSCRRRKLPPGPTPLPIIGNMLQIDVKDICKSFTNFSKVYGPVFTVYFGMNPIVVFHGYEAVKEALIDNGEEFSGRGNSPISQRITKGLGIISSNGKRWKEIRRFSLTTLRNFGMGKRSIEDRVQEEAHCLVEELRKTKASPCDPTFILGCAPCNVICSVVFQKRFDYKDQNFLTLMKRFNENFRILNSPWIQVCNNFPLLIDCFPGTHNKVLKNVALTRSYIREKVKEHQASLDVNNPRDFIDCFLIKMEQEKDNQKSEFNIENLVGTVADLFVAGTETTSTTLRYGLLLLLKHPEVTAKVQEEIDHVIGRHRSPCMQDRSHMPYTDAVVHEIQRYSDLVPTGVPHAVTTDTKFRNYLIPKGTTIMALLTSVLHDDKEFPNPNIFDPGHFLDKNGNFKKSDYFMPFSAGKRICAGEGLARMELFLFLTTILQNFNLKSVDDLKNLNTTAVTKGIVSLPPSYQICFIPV
Method: (§1) To identify the specific isoform that participates in the metabolism of BPI-460372, 1 µM BPI-460372 or positive control substrates were mixed with recombinant human CYP1A2, 2B6, 2C8, 2C9, 2C19, 2D6 or 3A4 (100 pmol P450·mL^-1), and the reaction was started by the addition of NADPH (1 mM final concentration) after 5-minute preincubation at 37°C. Aliquots were maintained in acetonitrile containing IS at different time points at 0 min, 5 min, 10 min, 20 min, 30 min, and 60 min. All incubations were performed in triplicate, and the concentration of the supernatant was determined by LC-MS/MS.
(§2) A substrate depletion approach was employed to determine the intrinsic clearance (CLint (rCYPj)) for each isoform. The contribution of each isoform was estimated using equations 2 and 3. CYPj abundance was evaluated as the abundance (CYPj) of each isoform in HLMs (pmol/mg protein).

[2] = target: T2, recombinant human CYP3A4 (Homo sapiens, UniProt P08684); test: as above; type: in vitro ADME; settings: rCYP3A4 100 pmol P450/mL, 1 µM
T2 construct: purchased Cypex Ltd. (Dundee, UK)
T2 sequence (P08684 whole entry): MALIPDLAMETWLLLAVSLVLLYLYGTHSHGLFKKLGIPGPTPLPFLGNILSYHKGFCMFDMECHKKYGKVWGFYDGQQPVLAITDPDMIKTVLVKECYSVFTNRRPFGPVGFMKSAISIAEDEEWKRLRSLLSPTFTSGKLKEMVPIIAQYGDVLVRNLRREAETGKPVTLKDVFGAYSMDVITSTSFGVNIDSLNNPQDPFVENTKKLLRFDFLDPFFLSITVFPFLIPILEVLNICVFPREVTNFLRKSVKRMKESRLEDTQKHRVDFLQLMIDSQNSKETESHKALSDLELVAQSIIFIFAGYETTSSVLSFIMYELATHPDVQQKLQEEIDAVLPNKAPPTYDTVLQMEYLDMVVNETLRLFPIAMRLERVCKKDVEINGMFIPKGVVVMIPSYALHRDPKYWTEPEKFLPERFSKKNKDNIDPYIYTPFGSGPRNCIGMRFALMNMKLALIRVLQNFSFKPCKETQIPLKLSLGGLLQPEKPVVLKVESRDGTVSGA
Method: as §1, §2

[3] = tested on: human hepatocytes; test: in vitro
Method: (§3) After mixing, 20 μL of cell suspension was serially transferred into 200 μL of cold acetonitrile containing IS at the time points of 0, 5, 15, 30, 60, and 120 min, respectively.
(§4) The metabolic stability was assessed by measuring the depletion of substrate. The half-life (t1/2), intrinsic clearance (CLint, in virto, µL·min^-1·million cells^-1), whole liver intrinsic clearance (CLint, in vivo, mL·min-1·kg^-1), and in vivo hepatic clearance (CLH, mL·min-1·kg^-1) were calculated following a reported method. In the calculation of CLH, the fraction drug unbound (Fub) was set as 1. The hepatic blood flow, liver weight, and hepatocellularity of five species were used for the calculation of CLint, in vivo [13, 14]. The hepatic extraction ratio (Eh) means the ratio of CLH to hepatic blood flow.

[4] = tested on: rat hepatocytes; test: in vitro
Method: as §3, §4

[5] = tested on: dog hepatocytes; test: in vitro
Method: as §3, §4

[6] = tested on: mouse hepatocytes; test: in vitro
Method: as §3, §4

[7] = in vitro; settings: hepatocytes
Method: as §3, §4

[8] = tested on: monkey hepatocytes; test: in vitro
Method: as §3, §4

[9] = In vivo clearance; settings: monkeys
[10] = target: CYP2D6 (Homo sapiens, UniProt P10635); test: Metabolic stability in HLMs with or without specific CYP inhibitor (quinidine); type: in vitro ADME; set-up: HLMs (1 mg protein·mL^-1); tissue BioIVT; host or cells: pooled human liver microsomes; settings: HLMs 1 mg protein/mL, substrate 1 μM, quinidine 20 µM
CYP2D6, sequence (P10635 whole entry): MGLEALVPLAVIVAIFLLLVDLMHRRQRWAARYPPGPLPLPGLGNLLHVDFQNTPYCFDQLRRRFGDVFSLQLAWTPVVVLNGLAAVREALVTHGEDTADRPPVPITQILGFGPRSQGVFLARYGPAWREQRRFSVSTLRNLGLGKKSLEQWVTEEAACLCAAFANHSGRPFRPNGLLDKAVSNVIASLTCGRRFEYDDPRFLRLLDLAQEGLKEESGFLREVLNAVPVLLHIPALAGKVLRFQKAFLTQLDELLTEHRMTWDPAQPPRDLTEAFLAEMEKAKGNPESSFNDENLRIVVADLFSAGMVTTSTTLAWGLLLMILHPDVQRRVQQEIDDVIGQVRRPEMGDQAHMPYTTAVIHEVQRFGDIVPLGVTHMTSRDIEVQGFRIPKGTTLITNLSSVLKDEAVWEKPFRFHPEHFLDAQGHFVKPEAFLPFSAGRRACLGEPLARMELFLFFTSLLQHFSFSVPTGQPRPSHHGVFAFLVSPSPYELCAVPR
Method: Before starting the experiments, the HLMs were thawed gently on ice. Metabolic stability incubations were performed at 37 °C. The incubations contained 100 mM phosphate buffer saline (PBS, pH 7.4), HLMs (1 mg protein·mL^-1), dimethyl sulfoxide (DMSO, blank control) or a selective CYP inhibitor, and BPI-460372 or positive control substrates (final incubation concentration, 1 μM). The incubation process started with the addition of NADPH (1 mM final concentration) after a 5-minute preincubation period. The chemical inhibitors were as follows: a-naphthoflavone (2 µM) for CYP1A2, ticlopidine (20 µM) for 2B6, quercetin (20 µM) for CYP2C8, sulfaphenazole (20 µM) for CYP2C9, ticlopidine (200 µM) for CYP2C19, quinidine (20 µM) for CYP2D6, and ketoconazole (20 µM) for CYP3A [9]. Aliquots were maintained in acetonitrile containing internal standard (IS) at various time points, such as 0 min, 5 min, 10 min, 20 min, 30 min, and 60 min. All incubations were performed in triplicate, and the concentration in the supernatant was determined by liquid chromatography-tandem mass spectrometry (LC-MS/MS).
The elimination rate constant k (min^-1) was obtained by linear regression from the natural logarithm of the […] of the parent drug and the incubation time. The inhibition rate was calculated using equation 1 [10]: […]

C=C(F)C(=O)N1CC(n2c(=O)n(-c3ccc(C(F)(F)F)cc3)c3nccnc32)C1 [BPI-460372]
Contribution [1]: 8.8% | Contribution [2]: 28.3% | CLint, in vivo ([3]; hepatocytes): 2.7 mL/min/kg | CLH ([3]; human, 1 µM): 2.4 mL/min/kg | Eh ([3]; human, 1 µM): 0.115 | CLint, in virto ([3]; human, hepatocytes): 0.746 µL·min^-1·Million cells^-1 | Clearance class from Eh ([3]; human, hepatocytes): low clearance | Remaining percentage after 120 min incubation ([3]; human, hepatocytes, 2 h, 1 µM): 97.3% | CLH ([4]; SD, rat, 1 µM): 11.0 mL/min/kg | Eh ([4]; SD, rat, 1 µM): 0.200 | Remaining percentage after 120 min incubation ([4]; SD, rat, hepatocytes, 2 h, 1 µM): 72.4% | CLint, in vivo ([4]; hepatocytes): 13.8 mL/min/kg | CLint, in virto ([4]; rat, hepatocytes): 2.941 µL·min^-1·Million cells^-1 | Clearance class from Eh ([4]; rat, hepatocytes): low clearance | CLH ([5]; beagle, dog, 1 µM): 13.8 mL/min/kg | Eh ([5]; beagle, dog, 1 µM): 0.446 | Remaining percentage after 120 min incubation ([5]; beagle, dog, hepatocytes, 2 h, 1 µM): 66.6% | CLint, in virto ([5]; dog, hepatocytes): 3.619 µL·min^-1·Million cells^-1 | Clearance class from Eh ([5]; dog, hepatocytes): moderate clearance | CLint, in vivo ([5]; hepatocytes): 24.9 mL/min/kg | CLH ([6]; ICR, mouse, 1 µM): 36.6 mL/min/kg | Eh ([6]; ICR, mouse, 1 µM): 0.406 | Remaining percentage after 120 min incubation ([6]; ICR, mouse, hepatocytes, 2 h, 1 µM): 54.7% | CLint, in vivo ([6]; hepatocytes): 61.6 mL/min/kg | CLint, in virto ([6]; mouse, hepatocytes): 5.187 µL·min^-1·Million cells^-1 | Clearance class from Eh ([6]; mouse, hepatocytes): moderate clearance | half-life at 1 µM ([7]; ICR, mouse): 134 min | half-life at 1 µM ([7]; SD, rat): 236 min | half-life at 1 µM ([7]; beagle, dog): 192 min | half-life at 1 µM ([7]; human): 929 min | half-life at 1 µM ([7]; monkey): 167 min | CLH ([8]; cynomolgus monkey, 1 µM): 11.1 mL/min/kg | Eh ([8]; cynomolgus monkey, 1 µM): 0.253 | CLint, in vivo ([8]; hepatocytes): 14.9 mL/min/kg | CLint, in virto ([8]; monkey, hepatocytes): 4.145 µL·min^-1·Million cells^-1 | Clearance class from Eh ([8]; monkey, hepatocytes): low clearance | Remaining percentage after 120 min incubation ([8]; monkey, hepatocytes, 2 h, 1 µM): 61.7% | Clearance in vivo [9]: low clearance | Inhibition Rate [10]: 17.0%
